# Measured values published in patent US11014911B2, “CDK2 inhibitors” (Pfizer Inc., priority 2019, dated 2021).
# Molecular target: CDK2/Cyclin E1 full length (Homo sapiens (Human), UniProt P24941)
# Assay: CDK2/Cyclin E1 full length mobility shift assay
# Assay type: biochemical
row,Compound,Ki
1,"CCNC(=O)O[C@@H]1CC[C@H](c2cc(NC(=O)Cc3cnc(C)s3)n[nH]2)C1 [Example 229, (1R,3S)-3-(3-{[(2-methyl-1,3-thiazol-5-yl)acetyl]amino}-1H-pyrazol-5-yl)cyclopentyl ethylcarbamate]",2.06 nM
2,"O=C(Cc1ccc(C(F)(F)F)nc1)Nc1cc([C@@H]2CC[C@H](OC(=O)NC[C@H]3C[C@@H]3CO)C2)[nH]n1 [Example 580, (1S,3R)-3-[3-({[6-(trifluoromethyl)pyridin-3-yl]acetyl}amino)-1H-pyrazol-5-yl]cyclopentyl {[(1S,2S)-2-(hydroxymethyl)cyclopropyl]-methyl}carbamate]",3.38 nM
3,"Cc1cnc(CC(=O)Nc2cc([C@H]3CC[C@@H](OC(=O)NC4(CC(F)(F)F)CC4)C3)[nH]n2)o1 [Example 454, (1R,3S)-3-(3-{[(5-methyl-1,3-oxazol-2-yl)acetyl]amino}-1H-pyrazol-5-yl)cyclopentyl[1-(2,2,2-trifluoroethyl)cyclopropyl]carbamate]",0.48 nM
4,"Cc1cnc(CC(=O)Nc2cc([C@H]3CC[C@@H](OC(=O)NC4(C)CC4)C3)[nH]n2)c(Cl)c1 [Example 438, (1R,3S)-3-(3-{[(3-chloro-5-methylpyridin-2-yl)acetyl]amino}-1H-pyrazol-5-yl)cyclopentyl (1-methylcyclopropyl)carbamate]",2.5 nM
5,"Cc1cnc(CC(=O)Nc2cc([C@H]3CC[C@@H](OC(=O)N[C@@H](C)C4CC4)C3)[nH]n2)cn1 [Example 470, (1R,3S)-3-(3-{[(5-methylpyrazin-2-yl)acetyl]amino}-1H-pyrazol-5-yl)cyclopentyl [(1S)-1-cyclopropylethyl]carbamate]",0.83 nM
6,"COc1ccc(S(C)(=O)=O)c(CC(=O)Nc2cc([C@H]3CC[C@@H](OC(=O)NC(C)C)C3)[nH]n2)c1 [Example 288, (1R,3S)-3-[3-({[5-methoxy-2-(methylsulfonyl)phenyl]acetyl}amino)-1H-pyrazol-5-yl]cyclopentyl propan-2-ylcarbamate]",0.39 nM
7,"Cc1cc(CC(=O)Nc2cc([C@H]3CC[C@@H](OC(=O)NC4(CC(F)(F)F)CC4)C3)[nH]n2)on1 [Example 453, (1R,3S)-3-(3-{[(3-methyl-1,2-oxazol-5-yl)acetyl]amino}-1H-pyrazol-5-yl)cyclopentyl [1-(2,2,2-trifluoroethyl)cyclopropyl]carbamate]",0.29 nM
8,"CC1(NC(=O)O[C@@H]2CC[C@H](c3cc(NC(=O)Cc4cc(C(F)(F)F)ccn4)n[nH]3)C2)CC1 [Example 444, (1R,3S)-3-[3-({[4-(trifluoromethyl)pyridin-2-yl]acetyl}amino)-1H-pyrazol-5-yl]cyclopentyl (1-methylcyclopropyl)carbamate]",1.41 nM
9,"COc1cnc(CC(=O)Nc2cc([C@H]3CC[C@@H](OC(=O)NC(C)C)C3)[nH]n2)cn1 [Example 277, (1R,3S)-3-(3-{[(5-methoxypyrazin-2-yl)acetyl]amino}-1H-pyrazol-5-yl)cyclopentyl propan-2-ylcarbamate]",0.98 nM
10,"CC1(NC(=O)O[C@@H]2CC[C@H](c3cc(NC(=O)CC4COc5ccccc54)n[nH]3)C2)CCOC1 (single isomer, unassigned) [Example 490]",3.68 nM
11,"CC1(NC(=O)O[C@@H]2CC[C@H](c3cc(NC(=O)Cc4coc(C5CC5)n4)n[nH]3)C2)CC1 [Example 432, (1R,3S)-3-(3-{[(2-cyclopropyl-1,3-oxazol-4-yl)acetyl]amino}-1H-pyrazol-5-yl)cyclopentyl (1-methylcyclopropyl)carbamate]",1.25 nM
12,"COc1cc(C(=O)Nc2cc([C@H]3CC[C@@H](OC(=O)N[C@H](C)CC(F)(F)F)C3)[nH]n2)n(C)n1 [Example 402, (1R,3S)-3-(3-{[(3-methoxy-1-methyl-1H-pyrazol-5-yl)carbonyl]amino}-1H-pyrazol-5-yl)cyclopentyl [(2R)-4,4,4-trifluorobutan-2-yl]carbamate]",1.54 nM
13,"Cc1ncc(CC(=O)Nc2cc([C@H]3CC[C@@H](OC(=O)NCC(F)(F)F)C3)[nH]n2)s1 [Example 254, (1R,3S)-3-(3-{[(2-methyl-1,3-thiazol-5-yl)acetyl]amino}-1H-pyrazol-5-yl)cyclopentyl (2,2,2-trifluoroethyl)carbamate]",2.17 nM
14,"CC[C@H](C)NC(=O)O[C@@H]1CC[C@H](c2cc(NC(=O)Cc3cccnc3OC)n[nH]2)C1 [Example 345, (1R,3S)-3-(3-{[(2-methoxypyridin-3-yl)acetyl]amino}-1H-pyrazol-5-yl)cyclopentyl (2S)-butan-2-ylcarbamate]",2.66 nM
15,"CC(CC(F)(F)F)N(C)C(=O)O[C@@H]1CC[C@H](c2cc(NC(=O)Cc3ccno3)n[nH]2)C1 (single isomer, unassigned) [Example 89]",0.85 nM
16,"COc1cc(CC(=O)Nc2cc([C@H]3CC[C@@H](OC(=O)NCC(F)(F)F)C3)[nH]n2)ccn1 [Example 255, (1R,3S)-3-(3-{[(2-methoxypyridin-4-yl)acetyl]amino}-1H-pyrazol-5-yl)cyclopentyl (2,2,2-trifluoroethyl)carbamate]",1.69 nM
17,"Cc1coc(CC(=O)Nc2cc([C@H]3CC[C@@H](OC(=O)NC4(C)CC4)C3)[nH]n2)n1 [Example 422, (1R,3S)-3-(3-{[(4-methyl-1,3-oxazol-2-yl)acetyl]amino}-1H-pyrazol-5-yl)cyclopentyl (1-methylcyclopropyl)carbamate]",0.55 nM
18,"CC(CC(F)(F)F)N(C)C(=O)O[C@@H]1CC[C@H](c2cc(NC(=O)c3cnnn3C)n[nH]2)C1 (single isomer, unassigned) [Example 411]",2.58 nM

row,Compound,Ki
1,"O=C(Cc1cc(F)cc(F)c1)Nc1cc([C@@H]2CC[C@H](OC(=O)NC[C@H]3C[C@H](O)C3)C2)[nH]n1 [Example 576, (1S,3R)-3-(3-{[(3,5-difluorophenyl)acetyl]amino}-1H-pyrazol-5-yl)cyclopentyl [(trans-3-hydroxycyclobutyl)methyl] carbamate]",1.99 nM
2,"C[C@H]1CCCN1C(=O)O[C@@H]1CC[C@H](c2cc(NC(=O)Cc3ccccn3)n[nH]2)C1 [Example 630, (1R,3S)-3-{3-[(pyridin-2-ylacetyl)amino]-1H-pyrazol-5-yl}cyclopentyl (2S)-2-methylpyrrolidine-1-carboxylate]",1.43 nM
3,"COc1cnc(CC(=O)Nc2cc([C@H]3CC[C@@H](OC(=O)NC4(C)CCOC4)C3)[nH]n2)cn1 (single isomer, unassigned) [Example 486]",1.46 nM
4,CC(C)(C)NC(=O)O[C@@H]1CC[C@H](c2cc(NC(=O)Cc3cc(Cl)ccn3)n[nH]2)C1 [Example 115],0.23 nM
5,"COC[C@H](C)NC(=O)O[C@@H]1CC[C@H](c2cc(NC(=O)c3cc(OC)nn3C)n[nH]2)C1 [Example 518, (1R,3S)-3-(3-{[(3-methoxy-1-methyl-1H-pyrazol-5-yl)carbonyl]amino}-1H-pyrazol-5-yl)cyclopentyl [(2S)-1-methoxypropan-2-yl]carbamate]",1.43 nM
6,"CC(C)NC(=O)O[C@@H]1CC[C@H](c2cc(NC(=O)c3cncn3C)n[nH]2)C1 [Example 260, (1R,3S)-3-(3-{[(1-methyl-1H-imidazol-5-yl)carbonyl]amino}-1H-pyrazol-5-yl)cyclopentyl propan-2-ylcarbamate]",2.89 nM
7,"COCCn1nccc1C(=O)Nc1cc([C@H]2CC[C@@H](OC(=O)N3CC[C@H]3C)C2)[nH]n1 [Example 593, (1R,3S)-3-[3-({[1-(2-methoxyethyl)-1H-pyrazol-5-yl]carbonyl}amino)-1H-pyrazol-5-yl]cyclopentyl (2R)-2-methylazetidine-1-carboxylate]",2.21 nM
8,"CC(CC(F)(F)F)NC(=O)O[C@@H]1CC[C@H](c2cc(NC(=O)Cc3cnn(C(C)C)c3)n[nH]2)C1 (single isomer, unassigned) [Example 407]",1.16 nM
9,"CC[C@H](C)NC(=O)O[C@@H]1CC[C@H](c2cc(NC(=O)Cc3ccccc3S(C)(=N)=O)n[nH]2)C1 (single isomer, unassigned) [Example 369]",0.84 nM
10,"O=C(Cc1cc(F)cc(F)c1)Nc1cc([C@H]2CC[C@@H](OC(=O)NC3CCOCC3)C2)[nH]n1 [Example 505, (1R,3S)-3-(3-{[(3,5-difluorophenyl)acetyl]amino}-1H-pyrazol-5-yl)cyclopentyl tetrahydro-2H-pyran-4-ylcarbamate]",1.6 nM
11,"Cc1coc(CC(=O)Nc2cc([C@H]3CC[C@@H](OC(=O)N4CCC[C@@H]4C)C3)[nH]n2)n1 [Example 636, (1R,3S)-3-(3-{[(4-methyl-1,3-oxazol-2-yl)acetyl]amino}-1H-pyrazol-5-yl)cyclopentyl (2S)-2-methylpyrrolidine-1-carboxylate]",0.83 nM
12,"COCc1cc(C(=O)Nc2cc([C@H]3CC[C@@H](OC(=O)NC4(CC(F)(F)F)CC4)C3)[nH]n2)n(C)n1 [Example 457, (1R,3S)-3-[3-({[3-(methoxymethyl)-1-methyl-1H-pyrazol-5-yl]carbonyl}amino)-1H-pyrazol-5-yl]cyclopentyl [1-(2,2,2-trifluoroethyl)cyclopropyl] carbamate]",0.38 nM
13,"Cc1ncc(CC(=O)Nc2cc([C@H]3CC[C@@H](OC(=O)NCC(F)F)C3)[nH]n2)s1 [Example 249, (1R,3S)-3-(3-{[(2-methyl-1,3-thiazol-5-yl)acetyl]amino}-1H-pyrazol-5-yl)cyclopentyl (2,2-difluoroethyl)carbamate]",2.32 nM
14,"Cc1cc(CC(=O)Nc2cc([C@H]3CC[C@@H](OC(=O)N4CCC4C)C3)[nH]n2)on1 (single isomer, unassigned) [Example 590]",2.86 nM
15,"Cn1ncc(CC(=O)Nc2cc([C@H]3CC[C@@H](OC(=O)NC4(C)CCOC4)C3)[nH]n2)c1C(F)(F)F (single isomer, unassigned) [Example 495]",1.79 nM
16,"CCC(CO)CNC(=O)O[C@@H]1CC[C@H](c2cc(NC(=O)Cc3ccc(OC)cc3)n[nH]2)C1 (single isomer, unassigned) [Example 530]",2.03 nM
17,"CC1(NC(=O)O[C@@H]2CC[C@H](c3cc(NC(=O)Cc4ccccc4)n[nH]3)C2)CCOC1 (single isomer, unassigned) [Example 125]",0.34 nM
18,"CC(C)NC(=O)O[C@@H]1CC[C@H](c2cc(NC(=O)Cc3ccccn3)n[nH]2)C1 [Example 265, (1R,3S)-3-{3-[(pyridin-2-ylacetyl)amino]-1H-pyrazol-5-yl}cyclopentyl propan-2-ylcarbamate]",1.91 nM
